Measurements: patent publication US9738902B2, “Modified PYR/PYL receptors activated by ligands” (priority 2013, dated 2017)

How the values were obtained:
PYR1 K59R A160V = molecular target: T1, PYR1 K59R A160V (Arabidopsis thaliana, UniProt O49686, A160V/K59R); experiment: Y2H Pocket Library Screen (HAB1, X-gal); type: cell-based
T1 construct: expressed in transfected cells; host or cells: S. cerevisiae Y190
How it was run: (§1)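 Mutant PYR1 variants are screened in yeast two-hybrid against HAB1, with 100 μM compound in –Leu/–Trp dextrose agar; responsiveness is judged by X-gal staining after 2 days at 30° C.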

PYR1 K59R T162Y = molecular target: T2, PYR1 K59R T162Y (Arabidopsis thaliana, UniProt O49686, K59R/T162Y); experiment: Y2H Pocket Library Screen (HAB1, X-gal); type: cell-based
T2 construct: expressed in transfected cells; host or cells: S. cerevisiae Y190
How it was run: as §1

PYR1 K59R A160I = molecular target: T3, PYR1 K59R A160I (Arabidopsis thaliana, UniProt O49686, A160I/K59R); experiment: Y2H Pocket Library Screen (HAB1, X-gal); type: cell-based
T3 construct: expressed in transfected cells; host or cells: S. cerevisiae Y190
How it was run: as §1

PYR1 K59R V164N = molecular target: T4, PYR1 K59R V164N (Arabidopsis thaliana, UniProt O49686, K59R/V164N); experiment: Y2H Pocket Library Screen (HAB1, X-gal); type: cell-based
T4 construct: expressed in transfected cells; host or cells: S. cerevisiae Y190 two-hybrid reporter strain
How it was run: as §1

PYR1 K59R T162L = molecular target: T5, PYR1 K59R T162L (Arabidopsis thaliana, UniProt O49686, K59R/T162L); experiment: Y2H Pocket Library Screen (HAB1, X-gal); type: cell-based
T5 construct: expressed in transfected cells; host or cells: S. cerevisiae Y190
How it was run: as §1

PYR1 K59R N167A = molecular target: T6, PYR1 K59R N167A (Arabidopsis thaliana, UniProt O49686, K59R/N167A); experiment: Y2H Pocket Library Screen (HAB1, X-gal); type: cell-based
T6 construct: expressed in transfected cells; host or cells: S. cerevisiae Y190 two-hybrid reporter strain
How it was run: as §1

PYR1 K59R E141F = molecular target: T7, PYR1 K59R E141F (Arabidopsis thaliana, UniProt O49686, E141F/K59R); experiment: Y2H Pocket Library Screen (HAB1, X-gal); type: cell-based
T7 construct: expressed in transfected cells; host or cells: S. cerevisiae Y190 two-hybrid reporter strain
How it was run: as §1

PYR1 K59R L87P = molecular target: T8, PYR1 K59R L87P (Arabidopsis thaliana, UniProt O49686, K59R/L87P); experiment: Y2H Pocket Library Screen (HAB1, X-gal); type: cell-based
T8 construct: expressed in transfected cells; host or cells: S. cerevisiae Y190 yeast two-hybrid reporter strain
How it was run: as §1

PYR1 K59R E94D = molecular target: T9, PYR1 K59R E94D (Arabidopsis thaliana, UniProt O49686, E94D/K59R); experiment: Y2H Pocket Library Screen (HAB1, X-gal); type: cell-based
T9 construct: expressed in transfected cells; host or cells: S. cerevisiae Y190 yeast two-hybrid reporter strain
How it was run: as §1

PYR1 K59R I110M = molecular target: T10, PYR1 K59R I110M (Arabidopsis thaliana, UniProt O49686, I110M/K59R); experiment: Y2H Pocket Library Screen (HAB1, X-gal); type: cell-based
T10 construct: expressed in transfected cells; host or cells: S. cerevisiae Y190 two-hybrid reporter strain
How it was run: as §1

PYR1 K59R M158V = molecular target: T11, PYR1 K59R M158V (Arabidopsis thaliana, UniProt O49686, K59R/M158V); experiment: Y2H Pocket Library Screen (HAB1, X-gal); type: cell-based
T11 construct: expressed in transfected cells; host or cells: S. cerevisiae Y190 two-hybrid reporter strain
How it was run: as §1

PYR1 K59R V164E = molecular target: T12, PYR1 K59R V164E (Arabidopsis thaliana, UniProt O49686, K59R/V164E); experiment: Y2H Pocket Library Screen (HAB1, X-gal); type: cell-based
T12 construct: expressed in transfected cells; host or cells: S. cerevisiae Y190
How it was run: as §1

PYR1 K59R A160T = molecular target: T13, PYR1 K59R A160T (Arabidopsis thaliana, UniProt O49686, A160T/K59R); experiment: Y2H Pocket Library Screen (HAB1, X-gal); type: cell-based
T13 construct: expressed in transfected cells; host or cells: S. cerevisiae Y190
How it was run: as §1

PYR1 K59R F108N = molecular target: T14, PYR1 K59R F108N (Arabidopsis thaliana, UniProt O49686, F108N/K59R); experiment: Y2H Pocket Library Screen (HAB1, X-gal); type: cell-based
T14 construct: expressed in transfected cells; host or cells: S. cerevisiae Y190 yeast two-hybrid reporter strain
How it was run: as §1

PYR1 K59R F108S = molecular target: T15, PYR1 K59R F108S (Arabidopsis thaliana, UniProt O49686, F108S/K59R); experiment: Y2H Pocket Library Screen (HAB1, X-gal); type: cell-based
T15 construct: expressed in transfected cells; host or cells: S. cerevisiae Y190 yeast two-hybrid reporter strain
How it was run: as §1

PYR1 K59R F108Q = molecular target: T16, PYR1 K59R F108Q (Arabidopsis thaliana, UniProt O49686, F108Q/K59R); experiment: Y2H Pocket Library Screen (HAB1, X-gal); type: cell-based
T16 construct: expressed in transfected cells; host or cells: S. cerevisiae Y190 yeast two-hybrid reporter strain
How it was run: as §1

PYR1 K59R S122G = molecular target: T17, PYR1 K59R S122G (Arabidopsis thaliana, UniProt O49686, K59R/S122G); experiment: Y2H Pocket Library Screen (HAB1, X-gal); type: cell-based
T17 construct: expressed in transfected cells; host or cells: S. cerevisiae Y190 two-hybrid reporter strain
How it was run: as §1

[1] = molecular target: T18, GST-HAB1 in the presence of PYR1^MANDI (Arabidopsis thaliana, UniProt O49686, F108A/F159L/K59R/S122G/V81I/Y58H); experiment: PP2C activity assay (pNPP); type: biochemical; details: PYR1^MANDI 1200 nM, PP2C 600 nM
T18 construct: 6×-His (N); made in house; host or cells: BL21[DE3]pLysS E. coli (receptor)
Text: (§2) One possibility in any functional screen conducted in a heterologous organism such as S. cerevisiae is that mutants identified may only work in the context of the heterologous expression system. We therefore examined whether recombinant PYR1^K59R,F108A,S122G and PYR1^MANDI proteins inhibit PP2C activity in vitro, as is well documented for wild type PYR1 in response to ABA (Park et al., 2009). Both receptors were cloned into pET28 to generate 6×-His (SEQ ID NO:109) tagged receptors. These were expressed in BL21[DE3]pLysS E. coli host cells at 18° C. overnight. 6×-His-fusion proteins were purified from sonicated lysates using Ni-NTA agarose (Qiagen, USA), according to the manufacturer's instructions. For PP2C assays, recombinant GST-HAB1 and GST-ABI2 were expressed and purified as described previously (Park et al., 2009) and PP2C activity assayed conducted using the colorimetric phosphatase substrate para-nitrophenyl phosphate (pNPP) as previously described (Park et al., 2009). PP2C assays were conducted using 600 nM of PP2C and 1200 nM recombinant receptors. […] We note that these mutant receptors cannot respond to ABA due to the K59R mutation they contain, which abolishes ABA responsiveness.

[2] = molecular target: T19, GST-ABI2 in the presence of PYR1^K59R,F108A,S122G (Arabidopsis thaliana, UniProt O49686, F108A/K59R/S122G); experiment: PP2C activity assay (pNPP); type: biochemical; details: PYR1^K59R,F108A,S122G 1200 nM, PP2C 600 nM
T19 construct: 6x-His; made in house; host or cells: E. coli BL21[DE3]pLysS (receptor)
Text: as §2

[3] = molecular target: T20, GST-ABI2 in the presence of PYR1^MANDI (Arabidopsis thaliana, UniProt O49686, F108A/F159L/K59R/S122G/V81I/Y58H); experiment: PP2C activity assay (pNPP); type: biochemical; details: PYR1^MANDI 1200 nM, PP2C 600 nM
T20 construct: 6×-His (N); made in house; host or cells: BL21[DE3]pLysS E. coli (receptor)
Text: as §2

T1 sequence (O49686 whole entry K59R/A160V): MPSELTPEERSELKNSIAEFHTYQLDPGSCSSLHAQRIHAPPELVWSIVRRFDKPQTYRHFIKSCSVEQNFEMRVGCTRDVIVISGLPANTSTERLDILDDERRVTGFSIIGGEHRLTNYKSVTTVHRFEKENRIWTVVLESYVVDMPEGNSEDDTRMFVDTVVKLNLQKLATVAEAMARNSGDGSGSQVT
T1 sequence (Q9CAJ0 23-511 partner): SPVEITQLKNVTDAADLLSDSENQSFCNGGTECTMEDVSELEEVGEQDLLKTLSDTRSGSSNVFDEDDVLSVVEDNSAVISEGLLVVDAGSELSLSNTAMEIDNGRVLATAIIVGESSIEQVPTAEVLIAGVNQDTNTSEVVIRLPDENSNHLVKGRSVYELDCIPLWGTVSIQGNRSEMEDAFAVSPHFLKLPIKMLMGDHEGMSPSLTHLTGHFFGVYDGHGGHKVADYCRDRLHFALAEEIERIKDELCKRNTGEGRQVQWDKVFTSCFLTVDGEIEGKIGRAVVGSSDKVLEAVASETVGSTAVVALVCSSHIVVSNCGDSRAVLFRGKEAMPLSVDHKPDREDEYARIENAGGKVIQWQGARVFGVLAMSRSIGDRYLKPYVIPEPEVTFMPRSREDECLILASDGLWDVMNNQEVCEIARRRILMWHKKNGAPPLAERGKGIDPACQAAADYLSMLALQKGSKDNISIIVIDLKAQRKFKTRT
T17 sequence (O49686 whole entry K59R/S122G): as the sequence (O49686 whole entry K59R/A160V) above, with S122G, V160A counted along it
T17 sequence (Q9CAJ0 23-511 partner): as the sequence (Q9CAJ0 23-511 partner) above
T20 sequence (O49686 whole entry Y58H/K59R/V81I/F108A/S122G/F159L): as the sequence (O49686 whole entry K59R/A160V) above, with Y58H, V81I, F108A, S122G, F159L, V160A counted along it
T20 sequence (O04719 whole entry partner): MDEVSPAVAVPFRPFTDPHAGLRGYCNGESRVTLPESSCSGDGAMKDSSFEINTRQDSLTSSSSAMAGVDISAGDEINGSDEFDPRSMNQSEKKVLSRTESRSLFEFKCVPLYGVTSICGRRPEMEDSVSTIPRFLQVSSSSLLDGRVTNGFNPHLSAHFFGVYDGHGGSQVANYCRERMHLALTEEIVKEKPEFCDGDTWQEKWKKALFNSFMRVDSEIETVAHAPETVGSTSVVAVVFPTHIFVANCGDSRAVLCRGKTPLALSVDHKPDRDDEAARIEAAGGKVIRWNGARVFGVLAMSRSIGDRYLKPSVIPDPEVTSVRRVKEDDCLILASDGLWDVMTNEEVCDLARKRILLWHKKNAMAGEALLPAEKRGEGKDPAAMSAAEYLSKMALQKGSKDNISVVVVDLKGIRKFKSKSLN
T18 sequence (O49686 whole entry Y58H/K59R/V81I/F108A/S122G/F159L): as the sequence (O49686 whole entry K59R/A160V) above, with Y58H, V81I, F108A, S122G, F159L, V160A counted along it
T18 sequence (Q9CAJ0 23-511 partner): as the sequence (Q9CAJ0 23-511 partner) above
T9 sequence (O49686 whole entry K59R/E94D): as the sequence (O49686 whole entry K59R/A160V) above, with E94D, V160A counted along it
T9 sequence (Q9CAJ0 23-511 partner): as the sequence (Q9CAJ0 23-511 partner) above
T13 sequence (O49686 whole entry K59R/A160T): as the sequence (O49686 whole entry K59R/A160V) above, with V160T counted along it
T13 sequence (Q9CAJ0 23-511 partner): as the sequence (Q9CAJ0 23-511 partner) above
T14 sequence (O49686 whole entry K59R/F108N): as the sequence (O49686 whole entry K59R/A160V) above, with F108N, V160A counted along it
T14 sequence (Q9CAJ0 23-511 partner): as the sequence (Q9CAJ0 23-511 partner) above
T3 sequence (O49686 whole entry K59R/A160I): as the sequence (O49686 whole entry K59R/A160V) above, with V160I counted along it
T3 sequence (Q9CAJ0 23-511 partner): as the sequence (Q9CAJ0 23-511 partner) above
T5 sequence (O49686 whole entry K59R/T162L): as the sequence (O49686 whole entry K59R/A160V) above, with V160A, T162L counted along it
T5 sequence (Q9CAJ0 23-511 partner): as the sequence (Q9CAJ0 23-511 partner) above
T11 sequence (O49686 whole entry K59R/M158V): as the sequence (O49686 whole entry K59R/A160V) above, with M158V, V160A counted along it
T11 sequence (Q9CAJ0 23-511, further chain): as the sequence (Q9CAJ0 23-511 partner) above
T19 sequence (O49686 whole entry K59R/F108A/S122G): as the sequence (O49686 whole entry K59R/A160V) above, with F108A, S122G, V160A counted along it
T19 sequence (O04719 whole entry partner): as the sequence (O04719 whole entry partner) above
T15 sequence (O49686 whole entry K59R/F108S): as the sequence (O49686 whole entry K59R/A160V) above, with F108S, V160A counted along it
T15 sequence (Q9CAJ0 23-511 partner): as the sequence (Q9CAJ0 23-511 partner) above
T2 sequence (Q9CAJ0 23-511): as the sequence (Q9CAJ0 23-511 partner) above
T2 sequence (O49686 whole entry K59R/T162Y): as the sequence (O49686 whole entry K59R/A160V) above, with V160A, T162Y counted along it
T16 sequence (O49686 whole entry K59R/F108Q): as the sequence (O49686 whole entry K59R/A160V) above, with F108Q, V160A counted along it
T16 sequence (Q9CAJ0 23-511 partner): as the sequence (Q9CAJ0 23-511 partner) above
T4 sequence (O49686 whole entry K59R/V164N): as the sequence (O49686 whole entry K59R/A160V) above, with V160A, V164N counted along it
T4 sequence (Q9CAJ0 23-511 partner): as the sequence (Q9CAJ0 23-511 partner) above
T8 sequence (O49686 whole entry K59R/L87P): as the sequence (O49686 whole entry K59R/A160V) above, with L87P, V160A counted along it
T8 sequence (Q9CAJ0 23-511 partner): as the sequence (Q9CAJ0 23-511 partner) above
T7 sequence (O49686 whole entry K59R/E141F): as the sequence (O49686 whole entry K59R/A160V) above, with E141F, V160A counted along it
T7 sequence (Q9CAJ0 23-511 partner): as the sequence (Q9CAJ0 23-511 partner) above
T10 sequence (O49686 whole entry K59R/I110M): as the sequence (O49686 whole entry K59R/A160V) above, with I110M, V160A counted along it
T10 sequence (Q9CAJ0 23-511 partner): as the sequence (Q9CAJ0 23-511 partner) above
T6 sequence (O49686 whole entry K59R/N167A): as the sequence (O49686 whole entry K59R/A160V) above, with V160A, N167A counted along it
T6 sequence (Q9CAJ0 23-511 partner): as the sequence (Q9CAJ0 23-511 partner) above
T12 sequence (O49686 whole entry K59R/V164E): as the sequence (O49686 whole entry K59R/A160V) above, with V160A, V164E counted along it
T12 sequence (Q9CAJ0 23-511 partner): as the sequence (Q9CAJ0 23-511 partner) above

N#Cc1c(Cl)cccc1Cl [Dichlobenil, dichlobenil]
100 µM: Threshold (PYR1 K59R A160V) | Threshold (PYR1 K59R T162Y) | Threshold (PYR1 K59R A160I) | Threshold (PYR1 K59R V164N) | Threshold (PYR1 K59R T162L) | Threshold (PYR1 K59R N167A) | Threshold (PYR1 K59R E141F) | Threshold (PYR1 K59R L87P) | Threshold (PYR1 K59R E94D) | Threshold (PYR1 K59R I110M) | Threshold (PYR1 K59R M158V) | Threshold (PYR1 K59R V164E) | Threshold (PYR1 K59R A160T)

C#CCOc1ccc(CCNC(=O)C(OCC#C)c2ccc(Cl)cc2)cc1OC (centres unmarked) [Mandipropamid, mandipropamid]
100 µM: Threshold (PYR1 K59R F108N) | Threshold (PYR1 K59R F108S) | Threshold (PYR1 K59R F108Q) | Threshold (PYR1 K59R S122G)
saturable inhibition: inhibition of HAB1 PP2C activity [1] | inhibition of ABI2 PP2C activity [2] | inhibition of ABI2 PP2C activity [3]
